2 compounds from ChEMBL document CHEMBL1201862, “PubChem BioAssay data set” (2004) can be followed below.

Each structure is given as a SMILES string. Active and inactive are the calls of the source.

Experiment [1] has as its target Caspase-9 (Homo sapiens, UniProt P55211). Nature of the experiment: inhibitors of purified CASP9 protease – biochemical, fluorescence, plate reader, cherry-picked samples, selectivity assay for caspase-6 inhibitor project, dose response (AID 743293).
For experiment [2], the target named is 1-phosphatidylinositol 4,5-bisphosphate phosphodiesterase gamma-1 (Homo sapiens, UniProt P19174). Description: Counterscreen for inhibitors of phospholipase C isozymes (PLC-B3): Fluorescence-based biochemical high throughput dose response assay to identify inhibitors of phospholipase C isozymes (PLC-gamma1). A general note: A counterscreen serves to expose hits that act by an unwanted route or on another target.

Experiment [3] has as its target Fatty acid synthase (Homo sapiens, UniProt P49327). Description: inhibition of human FAS-TE enzyme activity – biochemical, endpoint fluorescence intensity, uHTS hits, dose response (AID 624327).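 Further: fluorescence from hydrolysis of an O-methyl fluorescein acyl ester substrate by the enzyme.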 The experiment is classed as functional.
Experiment [4] has as its target Intestinal-type alkaline phosphatase (Homo sapiens, UniProt P09923). Description: inhibition of human intestinal alkaline phosphatase – biochemical, dose response (AID 488876). It is filed as functional.
Experiment [5] has as its target Lysine-specific demethylase 4A (Homo sapiens, UniProt O75164). Description: inhibition of JMJD2A H3K9me3 demethylation – biochemical, DELFIA europium, cherry-picked samples, selectivity assay for GASC-1 inhibitor project, dose response (AID 488840).
Experiment [6] has as its target Nonstructural protein 1 (Influenza A virus, UniProt Q194T2). It is filed as functional, Influenza A virus (A/California/07/2009(H1N1)).
For experiment [7], the target named is ORF 73 (Human herpesvirus 8, UniProt O40947). Description: KSHV LANA DNA-binding disruption – biochemical, fluorescence polarization, cherry-picked samples, dose response (AID 504725).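 Further: fluorescence polarization of a labeled DNA duplex reporting LANA DNA binding; potency is for inhibitors that block LANA binding to the DNA.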 Details: species or system Human gammaherpesvirus 8. (In general: In fluorescence polarisation assays a small probe gives low polarisation when free and higher when bound to something large.)

In experiment [8] the target is Intestinal-type alkaline phosphatase (Mus musculus, UniProt P24822). Nature of the experiment: PubChem AID 488785. It is filed as functional.
Experiment [9] concerns the target Troponin, cardiac muscle (Homo sapiens, UniProt P19429+P45379+P63316). Description: compounds desensitizing RTF to calcium – biochemical, fluorescence, cardiac regulated thin filaments, triplicate IC50, dose response (AID 504742). It is filed as protein-complex assay.
The target in experiment [10] is T1, Protein RecA (Mycobacterium tuberculosis, UniProt P9WHJ3).
T1 sequence (P9WHJ3 whole entry): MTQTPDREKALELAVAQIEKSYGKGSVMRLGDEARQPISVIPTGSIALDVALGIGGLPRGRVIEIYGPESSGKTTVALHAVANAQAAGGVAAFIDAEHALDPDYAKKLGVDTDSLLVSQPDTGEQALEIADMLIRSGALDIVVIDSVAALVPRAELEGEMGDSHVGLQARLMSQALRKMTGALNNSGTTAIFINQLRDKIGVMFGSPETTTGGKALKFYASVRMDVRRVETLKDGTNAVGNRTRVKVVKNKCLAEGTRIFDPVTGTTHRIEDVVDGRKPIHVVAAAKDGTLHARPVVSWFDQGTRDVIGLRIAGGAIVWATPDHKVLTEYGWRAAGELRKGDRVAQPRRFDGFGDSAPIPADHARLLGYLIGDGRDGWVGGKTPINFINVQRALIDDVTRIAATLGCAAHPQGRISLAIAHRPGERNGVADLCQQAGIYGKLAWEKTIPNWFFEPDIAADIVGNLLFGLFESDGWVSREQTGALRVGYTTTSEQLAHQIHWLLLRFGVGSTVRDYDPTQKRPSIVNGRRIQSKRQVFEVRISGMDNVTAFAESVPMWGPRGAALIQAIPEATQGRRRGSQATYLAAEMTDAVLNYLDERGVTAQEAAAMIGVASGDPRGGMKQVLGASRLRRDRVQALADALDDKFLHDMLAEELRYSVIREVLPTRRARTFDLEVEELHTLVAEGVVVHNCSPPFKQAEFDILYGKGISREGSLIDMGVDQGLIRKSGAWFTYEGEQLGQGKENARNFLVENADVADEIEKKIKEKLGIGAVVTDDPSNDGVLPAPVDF
Nature of the experiment: Fluorescence Cell-Free Homogeneous Dose Retest to Identify Inhibitors of RecA-Intein Splicing Activity. [Related pubchem assays (depositor defined):AID2097, AID2223, AID489010, AID492950]. The experiment is classed as functional.

Experiment [11] relates to Streptococcus sp. 'group A'. Description: Streptococcus pyogenes SK(-)GAS viability under kanamycin – luminescence, BacTiterGlo, confirmation, counter-screen for streptokinase expression inhibitor project, dose response (AID 1900). The experiment is classed as functional, organism-based.
Experiment [12] addresses T2, Ubiquitin-conjugating enzyme E2 N (Homo sapiens, UniProt P61088).
T2 sequence (P61088 whole entry): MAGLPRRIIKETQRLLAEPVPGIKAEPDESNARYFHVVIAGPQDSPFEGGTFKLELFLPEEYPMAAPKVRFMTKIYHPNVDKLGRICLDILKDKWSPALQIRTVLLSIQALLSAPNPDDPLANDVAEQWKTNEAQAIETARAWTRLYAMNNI
The experiment is classed as functional.

The target of experiment [13] is T3, Replicative DNA helicase DnaB (Mycobacterium tuberculosis, UniProt P9WMR3).
T3 sequence (P9WMR3 whole entry): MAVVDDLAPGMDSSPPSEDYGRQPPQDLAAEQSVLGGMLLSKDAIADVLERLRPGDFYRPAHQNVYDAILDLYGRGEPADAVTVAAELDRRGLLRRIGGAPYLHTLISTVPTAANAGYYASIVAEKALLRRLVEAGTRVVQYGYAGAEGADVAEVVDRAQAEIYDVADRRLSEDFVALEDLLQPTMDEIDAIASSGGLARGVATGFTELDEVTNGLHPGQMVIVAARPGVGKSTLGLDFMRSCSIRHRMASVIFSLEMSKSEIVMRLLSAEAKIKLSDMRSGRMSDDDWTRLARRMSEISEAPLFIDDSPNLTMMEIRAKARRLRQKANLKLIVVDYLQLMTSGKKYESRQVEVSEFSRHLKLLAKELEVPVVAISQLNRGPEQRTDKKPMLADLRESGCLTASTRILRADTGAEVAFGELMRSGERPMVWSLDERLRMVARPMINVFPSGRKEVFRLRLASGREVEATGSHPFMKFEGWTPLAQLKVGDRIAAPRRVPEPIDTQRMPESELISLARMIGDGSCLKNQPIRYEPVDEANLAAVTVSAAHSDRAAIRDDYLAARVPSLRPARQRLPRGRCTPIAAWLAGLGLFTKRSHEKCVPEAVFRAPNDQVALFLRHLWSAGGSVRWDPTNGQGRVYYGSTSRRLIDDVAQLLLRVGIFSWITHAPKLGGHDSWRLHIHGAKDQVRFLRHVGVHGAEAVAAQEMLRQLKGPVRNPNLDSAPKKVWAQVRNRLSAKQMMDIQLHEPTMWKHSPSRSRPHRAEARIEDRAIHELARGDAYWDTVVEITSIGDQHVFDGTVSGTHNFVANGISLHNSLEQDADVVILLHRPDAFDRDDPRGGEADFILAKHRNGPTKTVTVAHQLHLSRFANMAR
Description: DnaB intein splicing inhibitors, dose response, biochemical, cell-free fluorescence (AID 449749). It is filed as functional.

Experiment [14] is described as follows: HIV-1 AD8 envelope cell-cell fusion blockers – cherry-pick, dose response (AID 652062).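 Further: luciferase signal from cell-cell fusion driven by HIV-1 clade B AD8 Env; potency is for inhibitors of fusion seen as a drop in luminescence.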 It is filed as functional, cell-based.
The target of experiment [15] is T2, Ubiquitin-conjugating enzyme E2 N. The experiment is classed as functional. This is another data set of the same source.
Experiment [16] relates to INS1. Nature of the experiment: INS-1E survival protection against cytokine death – cell-based, luminescence, retest, dose response (AID 449756).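 Further: cell death triggered by IL-1 beta plus TNF-alpha plus IFN-gamma mixture; protective hits raise ATP signal compared with cytokine alone wells.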 The experiment is classed as functional. The following applies: Rattus norvegicus.

In general, AC50 refers to the concentration at which the activity in the assay is half-maximal. Usually IC50 stands for the concentration at which inhibition is half-maximal. In the case of `O=c1ccc2c(-c3ccccc3S(=O)(=O)O)c3ccc(O)c(O)c3oc-2c1O` [PYROGALLOL RED], the AC50 was > 70 µM (inactive) in experiment [1], 2.63 µM (active) in experiment [5] and 0.526 µM (active) in experiment [7]. For the same compound, the IC50 in experiment [2] is 14.2 µM (inactive); in experiment [3], 16.2 µM (active); in experiment [4], > 100 µM (inactive); in experiment [6], 13.5 µM (active); in experiment [8] it was 12.4 µM (active); in experiment [9], 0.558 µM (active).
One may read the EC50 as the concentration at which the effect is half-maximal. With `CCCCCCCCCCOC(=O)C[n+]1c(COc2ccccc2OC)n(C)c2ccccc21`, the 50% effective concentration (EC50) in experiment [10] was 8.91 µM (active); in [11], 6.69 µM (active). Also, the IC50 in experiment [12] was 15.1 µM (active); in experiment [15], 15.6 µM (active). The AC50 in experiment [13] is 3.92 µM (active); in experiment [14], 4.02 µM (active); in [16], 1.04 µM (active).
